Tests used:
[1] = tested on: HaCaT keratinocytes; test: [3H]-thymidine DNA synthesis in HaCaT keratinocytes; format: cell-based, human; conditions: HaCaT
Method: HaCaT keratinocytes were plated in 96-well plates at the density of 10,000 cells/well in DMEM (Cellgro, Herndon Va.) containing 5% charcoal treated fetal bovine serum (Hyclone, Logan, Utah), 1% antibiotic solution (PSA, Sigma, St. Louis, […].). Next day, media were changed and vehicle (ethanol) or secosteroids added. Cells were incubated with compounds for 48 hours. [^3H]-thymidine (Amersham Biosciences, Picataway, N.Y.) was added to the final concentration of 1 μCi/mL medium for last 12 hours of incubation. Media were then discarded, cells detached with trypsin and harvested on a glass fiber filter (Packard, Meriden, Calif.). Radioactivity was measured with a beta counter (Direct Beta-Counter Matrix 9600; Packard).
To measure DNA synthesis, keratinocytes, melanoma or prostate cancer cells were plated in 96-well plates. After overnight incubation tested compounds were added to the medium to achieve final concentrations 10^−7-10^−10 [M]. 100 μl of medium per well containing vitamin D3 compound was added to the cells. After 36 hours of incubation [3H]-thymidine (specific activity 88.0 Ci/mmol; Amersham Biosciences, Picataway, N.Y., USA) was added at 1 μCi/mL medium. After 12 hours, media were discarded, cells detached with trypsin and harvested on a glass fiber filter (Packard, Meriden, Calif., USA). 3H-radioactivity was measured with a beta counter (Direct Beta-Counter Matrix 9600; Packard).
HaCaT keratinocytes were plated out in 24-well plates, 50,000 cells/well. […] After 4 h media were discarded, cells washed with cold phosphate-buffered saline and incubated in 10% trichloroacetic acid for 30 min. Cells were washed again with phosphate-buffered saline, 100 μl 1.0 M NaOH was added to each well and plates incubated for 30 min at 30° C. The supernatant was collected and the ^3H-radioactivity measured by scintillation counting using a Direct Beta-Counter Matrix 9600 (Packard). The [^3H]-thymidine incorporation into DNA was measured separately for each well and the results entered into the calculation as the mean of 6 wells for each condition in a series of six experiments (n=36). Data were analyzed with GraphPad Prizm Version 4.0 (GraphPad Software Inc., San Diego, Calif., USA) using t tests. Differences were considered significant when p<0.05.

[2] = tested on: SK Mel 188 human melanoma cells; test: Soft agar colony formation, SKMEL 188 melanoma; format: cell-based; conditions: for colony formation in soft agar versus vehicle control: SKMEL 188, 10 nM
Method: Growth and survival of prostate cancer cells (PC3) and melanoma cells SKMEL 188 and AbC1 was determined by following their ability to form colonies in soft agar. Cells growing in monolayer culture were trypsinized and resuspended (1,000 cells/well) in 0.25 ml medium containing 0.4% agarose and 5% charcoal stripped serum (HyClone).
Cell suspensions were added to 0.8% agar layer in 24 well plates. […] Each condition was tested in quadruplicate. An ethanol solvent control (amount of ethanol equivalent to test) as well as a media-only control was included in the assay. Cells were allowed to grow at 37° with 5% CO2 over two weeks with secosteroids in fresh media (100 μL) being added after every 72 h. Soft agar colonies were scored and stained with 0.5 mg/ml MTT reagent (Promega), 500 μL/well after two weeks. Colonies were then counted under the microscope and number of units was calculated as number of colonies formed divided by the number of cells seeded×100.

[3] = tested on: human dermal fibroblast line; test: TGF-b1 induced hyaluronan synthesis by dermal fibroblasts; format: cell-based; conditions: hrTGF-b1 5 ng/ml, secosteroids at 10^−10M
Description: There were found no significant differences in fibroblast numbers per well and no significant differences in trypan blue exclusion between control wells vs those with secosteroids range 95-100% (data not shown).

[4] = tested on: Human dermal fibroblasts; test: TGF-b1 induced collagen protein production by dermal fibroblasts; format: cell-based; conditions: collagenase sensitive protein; for Collagen CPM/Well (mean ± SEM) × 10^−5 FB: hrTGF-b1 5 ng/ml, secosteroids at 10^−10M, 3[H]-proline
Method: Human dermal fibroblasts grown from explant skin cultures at less than 10 subpassages were plated at 5×10^4 cells per well in 24 well Costar tissue culture plates and were grown to confluency. Complete MEM was then changed to serum free Complete MEM without non-essential amino acids. After 24 hours, culture medium was changed (450 μl/well) to the same and secosteroids listed in Table 14 were added in 10 μl absolute alcohol (ETOH) to a final concentration of 10^−9 and M, 3 replicate wells each. Vehicle control wells (n=6) contained 10 μl (ETOH). After 2 hour pre-incubation, hr TGF-b1 (R and D systems) was added to each well except ETOH wells at a final concentration of 5 ng/ml. After 48 hours of culture, plate wells were paused with 1μ Cl ^3[H]-proline. After 24 hours, culture supernatants were harvested and collagenase sensitive protein was determined as previously described (44).

[5] = target: T1, cytochrome P450scc (Bos taurus, UniProt P00189); test: Metabolism by cytochrome P450scc in cyclodextrin
T1 sequence (P00189 40-520): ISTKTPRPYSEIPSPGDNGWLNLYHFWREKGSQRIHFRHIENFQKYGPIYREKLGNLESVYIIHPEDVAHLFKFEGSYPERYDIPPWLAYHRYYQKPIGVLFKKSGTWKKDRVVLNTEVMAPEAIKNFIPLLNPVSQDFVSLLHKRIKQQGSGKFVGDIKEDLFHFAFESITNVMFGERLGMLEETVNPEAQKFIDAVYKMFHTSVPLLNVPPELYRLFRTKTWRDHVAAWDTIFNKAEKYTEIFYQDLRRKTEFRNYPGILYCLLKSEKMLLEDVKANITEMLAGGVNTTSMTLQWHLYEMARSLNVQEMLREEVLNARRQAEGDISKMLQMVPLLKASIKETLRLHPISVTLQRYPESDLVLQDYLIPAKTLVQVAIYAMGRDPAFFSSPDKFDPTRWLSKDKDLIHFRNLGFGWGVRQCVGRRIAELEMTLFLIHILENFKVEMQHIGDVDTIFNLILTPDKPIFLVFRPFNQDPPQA
Method: Adrenodoxin was expressed in Escherichia coli and purified as described before (41). […] Metabolites were analysed using a Perkin Elmer HPLC equipped with a C18 column (Brownlee Aquapore, 22 cm×4.6 mm, particle size 7 μm).

C=C1CCC(O)CC1=CC=C1CCCC2(C)C1CCC2(O)C(C)(O)CC(O)CC(C)C (stereo not drawn) [17α,20,23-trihydroxycholecalciferol, (5Z,7E)-9,10-secocholesta-5,7,10(19)-triene-3β,17α,20,23-tetrol]
keratinocyte proliferation compared with 1α,25-dihydroxycholecalciferol ([1]; 48 h): inhibit keratinocyte proliferation more potently than the control compound

C=C1CCC(O)CC1=CC=C1CCCC2(C)C1CCC2C(C)(O)CCC(O)C(C)C (stereo not drawn) [20,24(OH)2D3, (5Z,7E)-9,10-secocholesta-5,7,10(19)-triene-3β,20,24-triol]
colony formation in soft agar versus vehicle control [2]: greatly inhibited colony formation

C=C1C(=CC=C2CCCC3(C)C2CCC3C(C)(O)CCC(O)C(C)C)CC(O)CC1O (stereo not drawn) [1,20,24(OH)2D3, (5Z,7E)-9,10-secocholesta-5,7,10(19)-triene-1α,3β,20,24-tetrol]
colony formation in soft agar versus vehicle control [2]: greatly inhibited colony formation

C=C1CCC(O)CC1=CC=C1CCCC2(C)C1CCC2C(C)(O)CCCC(C)CO (stereo not drawn) [20,26(OH)2D3, (5Z,7E)-9,10-secocholesta-5,7,10(19)-triene-3β,20,26-triol]
colony formation in soft agar versus vehicle control [2]: greatly inhibited colony formation

C=C1CCC(O)CC1=CC=C1CCCC2(C)C1CCC2C(C)(O)CCCC(C)(C)O (stereo not drawn) [20,25(OH)2D3, (5Z,7E)-9,10-secocholesta-5,7,10(19)-triene-3β,20,25-triol]
colony formation in soft agar versus vehicle control [2]: greatly inhibited colony formation

C=C1C(=CC=C2CCCC3(C)C2CCC3C(C)(O)CCCC(C)(C)O)CC(O)CC1O (stereo not shown) [1,20,25(OH)2D3, 1,20,25-trihydroxycholecalciferol]
colony formation in soft agar versus vehicle control [2]: greatly inhibited colony formation

CC(O)C1(O)CCC2C3=CC=C4CC(O)CCC4(C)C3CCC21C (stereo not shown) [17,20 S(OH)27DHP]
Hyaluronan CPM/Well (mean ± SEM) × 10^−5 FB [3]: 227 ± 53 CPM/Well × 10^−5 FB | Collagen CPM/Well (mean ± SEM) × 10^−5 FB [4]: 213 ± 17 CPM/Well × 10^−5 FB

1,25 (OH)2 D3
Hyaluronan CPM/Well (mean ± SEM) × 10^−5 FB [3]: 297 ± 18 CPM/Well × 10^−5 FB | Collagen CPM/Well (mean ± SEM) × 10^−5 FB [4]: 310 ± 100 CPM/Well × 10^−5 FB

CC(=O)[C@H]1CC[C@H]2C3=CC=C4C[C@@H](O)CC[C@]4(C)[C@H]3CC[C@]12C [compound 1, 3β-hydroxypregna-5,7-dien-20-one]
Hyaluronan CPM/Well (mean ± SEM) × 10^−5 FB [3]: 230 ± 34 CPM/Well × 10^−5 FB | Collagen CPM/Well (mean ± SEM) × 10^−5 FB [4]: 292 ± 31 CPM/Well × 10^−5 FB

C[C@]12CC[C@H]3C(=CC=C4C[C@@H](O)CC[C@@]43C)[C@@H]1CC[C@@H]2C(=O)O [17-COOH, (5Z,7E)-3β-hydroxy-androsta-5,7-diene-17β-carboxylic acid]
DNA synthesis ([1]; 72 hrs, 0.01-100 nM): DNA synthesis was inhibited at all concentrations

CC(O)C1(O)CCC2C3=CC=C4CC(O)CCC4(C)C3CCC21C (stereo not shown) [17,20 R(OH)27DHP]
Hyaluronan CPM/Well (mean ± SEM) × 10^−5 FB [3]: 607 ± 127 CPM/Well × 10^−5 FB | Collagen CPM/Well (mean ± SEM) × 10^−5 FB [4]: 173 ± 11 CPM/Well × 10^−5 FB

C=C1/C(=C\C=C2/CCC[C@]3(C)[C@@H]([C@H](C)CCCC(C)C)CC[C@@H]23)C[C@@H](O)C[C@@H]1O [1α-hydroxycholecalciferol, (5Z,7E)-9,10-secocholesta-5,7,10(19)-triene-1α,3β-diol]
Km [5]: 41 ± 6 µM | kcat ([5]; substrate in 0.45% cyclodextrin): 1.3±0.1 mol/min/mol P450scc

(5Z,7E)-9,10-secoandrosta-5,7,10(19)-trien-3β-ol [aD3]
colony formation on soft agar ([2]; SKMEL-188, dose dependent): suppress colony formation on soft agar

CC(O)C1(O)CCC2C3=CC=C4CC(O)CCC4(C)C3CCC21C (stereo not shown) [17,20(OH)27DHP]
TGF-b1 induced collagen protein production ([4]; [3H]-proline): inhibited TGF-b1 induced collagen protein production
